Measured values: patent US12024500B2, “Five-membered ring-substituted pyridazinol compounds and derivatives, preparation methods, herbicidal compositions and applications thereof” (Qingdao Kingagroot Chemical Compound Co., Ltd., priority 2018, dated 2024)

Assays:
Experiment in all cases: Post-emergence weed control test (greenhouse pot, spray)
Format in all cases: in vivo
[1] = test system: Chenopodiaceae; conditions: 3000 g/ha, 3 weeks after spraying
Description: (§1) The activity level standard of harmful plant destruction (i.e. growth inhibition rate) is as follows: • Level 10: completely dead; • Level 9: above 90% growth inhibition rate; • Level 8: above 80% growth inhibition rate; • Level 7: above 70% growth inhibition rate; • Level 6: above 60% growth inhibition rate; • Level 5: above 50% growth inhibition rate; • Level 4: above 40% growth inhibition rate; • Level 3: above 30% growth inhibition rate; • Level 2: above 20% growth inhibition rate; • Level 1: below 20% growth inhibition rate; • Level 0: no effect.
(§2) The above described growth inhibition rates are fresh weight inhibition rates.
(§3) Experiment of post-emergence test: monocotyledonous and dicotyledonous weed seeds as well as main crop seeds (i.e., wheat, corn, rice, soybean, cotton, oilseed rape, millet and sorghum) were put into a plastic pot loaded with soil, then covered with 0.5-2 cm of soil, and the seeds were allowed to grow in good greenhouse environment. The test plants were treated at 4-5 leaf stage 2-3 weeks after sowing. The test compounds of the invention were dissolved in acetone respectively, then added with Tween-80 and diluted by a certain amount of water to give solutions with certain concentrations. The solution was sprayed to the plants with a sprayer. The plants were cultured for 3 weeks in the greenhouse.

[2] = test system: Rorippa indica; conditions: 3 weeks after spraying; for weed control effect (activity level, fresh weight growth inhibition rate), Rorippa indica: 3000 g/ha
Description: as §1, §2, §3

[3] = test system: Veronica polita; conditions: 3 weeks after spraying; for weed control effect (activity level, fresh weight growth inhibition rate), Veronica polita: 3000 g/ha
Description: as §1, §2, §3

[4] = test system: Amaranthus retroflexus; conditions: 3000 g/ha, 3 weeks after spraying
Description: as §1, §2, §3

Compound | weed control effect (activity level, fresh weight growth inhibition rate), Chenopodiaceae [1] | weed control effect (activity level, fresh weight growth inhibition rate), Rorippa indica [2] | weed control effect (activity level, fresh weight growth inhibition rate), Veronica polita [3] | weed control effect (activity level, fresh weight growth inhibition rate), Amaranthus retroflexus [4] | weed control effect (activity level), Rorippa indica, comparison experiment ([2]; 300 g/ha) | weed control effect (activity level), Veronica polita, comparison experiment ([3]; 300 g/ha)
Cn1nc(F)cc1-c1nnc(Cl)cc1O [Compound 56] | 10 (Level 10: completely dead) | 10 (Level 10: completely dead) | 10 (Level 10: completely dead) | 10 (Level 10: completely dead) |  | 
Cn1ncc(C2CC2)c1-c1nnc(Cl)cc1O [Compound 82] | 10 (Level 10: completely dead) | 10 (Level 10: completely dead) | 10 (Level 10: completely dead) | 10 (Level 10: completely dead) |  | 
Cn1ncc(Br)c1-c1nnc(Cl)cc1O [Compound 78] | 10 (Level 10: completely dead) | 10 (Level 10: completely dead) | 10 (Level 10: completely dead) | 10 (Level 10: completely dead) |  | 
Cn1nc(Cl)cc1-c1nnc(Cl)cc1O [Compound 48] | 10 (Level 10: completely dead) | 10 (Level 10: completely dead) | 10 (Level 10: completely dead) | 10 (Level 10: completely dead) |  | 
CCn1nc(C2CC2)cc1-c1nnc(Cl)cc1O [Compound 44] | 10 (Level 10: completely dead) | 10 (Level 10: completely dead) | 10 (Level 10: completely dead) | 10 (Level 10: completely dead) |  | 
CC(=O)n1nccc1-c1nnc(Cl)cc1O [Compound 130] | 10 (Level 10: completely dead) | 10 (Level 10: completely dead) | 10 (Level 10: completely dead) | 10 (Level 10: completely dead) |  | 
Cc1cnn(C)c1-c1nnc(Cl)cc1O [Compound 80] | 10 (Level 10: completely dead) | 10 (Level 10: completely dead) | 10 (Level 10: completely dead) | 10 (Level 10: completely dead) |  | 
Cn1nc(C2CC2)cc1-c1nnc(C(F)(F)C(F)(F)F)cc1O [Compound 45] | 10 (Level 10: completely dead) | 10 (Level 10: completely dead) | 10 (Level 10: completely dead) | 10 (Level 10: completely dead) |  | 
N#Cc1ccc(-c2nnc(Cl)cc2O)s1 [Compound 33] | 10 (Level 10: completely dead) | 10 (Level 10: completely dead) | 10 (Level 10: completely dead) | 10 (Level 10: completely dead) | 10 | 10
Cn1nc(-c2ccccc2)cc1-c1nnc(Cl)cc1O [Compound 73] | 10 (Level 10: completely dead) | 10 (Level 10: completely dead) | 10 (Level 10: completely dead) | 10 (Level 10: completely dead) |  | 
Cn1nc(CC(F)(F)F)cc1-c1nnc(Cl)cc1O [Compound 75] | 10 (Level 10: completely dead) | 10 (Level 10: completely dead) | 10 (Level 10: completely dead) | 10 (Level 10: completely dead) |  | 
Cc1ccc(-c2nnc(Cl)cc2O)s1 [Compound 27] | 10 (Level 10: completely dead) | 10 (Level 10: completely dead) | 10 (Level 10: completely dead) | 10 (Level 10: completely dead) |  | 
Cn1ncc(F)c1-c1nnc(Cl)cc1O [Compound 76] | 10 (Level 10: completely dead) | 10 (Level 10: completely dead) | 10 (Level 10: completely dead) | 10 (Level 10: completely dead) |  | 
Cn1ncc(Cl)c1-c1nnc(Cl)cc1O [Compound 77] | 10 (Level 10: completely dead) | 10 (Level 10: completely dead) | 10 (Level 10: completely dead) | 10 (Level 10: completely dead) |  | 
Cn1ncc(C(F)(F)F)c1-c1nnc(Br)cc1O [Compound 95] | 10 (Level 10: completely dead) | 10 (Level 10: completely dead) | 10 (Level 10: completely dead) | 10 (Level 10: completely dead) |  | 
CCc1cnn(C)c1-c1nnc(Cl)cc1O [Compound 81] | 10 (Level 10: completely dead) | 10 (Level 10: completely dead) | 10 (Level 10: completely dead) | 10 (Level 10: completely dead) |  | 
Cn1ccnc1-c1nnc(Cl)cc1O [Compound 3] | 10 (Level 10: completely dead) | 10 (Level 10: completely dead) | 10 (Level 10: completely dead) | 10 (Level 10: completely dead) |  | 
Oc1cc(Cl)nnc1-c1ccnn1Cc1ccccc1 [Compound 54] | 10 (Level 10: completely dead) | 10 (Level 10: completely dead) | 10 (Level 10: completely dead) | 10 (Level 10: completely dead) |  | 
Cn1nc(C(F)F)cc1-c1nnc(Cl)cc1O [Compound 74] | 10 (Level 10: completely dead) | 10 (Level 10: completely dead) | 10 (Level 10: completely dead) | 10 (Level 10: completely dead) |  | 
Cn1ncc(I)c1-c1nnc(Cl)cc1O [Compound 79] | 10 (Level 10: completely dead) | 10 (Level 10: completely dead) | 10 (Level 10: completely dead) | 10 (Level 10: completely dead) |  | 
Cn1nc(C2CC2)cc1-c1nnc(Cl)cc1O [Compound 61] | 10 (Level 10: completely dead) | 10 (Level 10: completely dead) | 10 (Level 10: completely dead) | 10 (Level 10: completely dead) |  | 
Cn1nc(C#N)cc1-c1nnc(Cl)cc1O [Compound 71] | 10 (Level 10: completely dead) | 10 (Level 10: completely dead) | 10 (Level 10: completely dead) | 10 (Level 10: completely dead) |  | 
